≈ marks a conversion by molar mass, not a printed value. Calls of active or inactive are those of the source. The rule behind the calls is not given here.
Experiments:
[1] = target: Angiotensin-converting enzyme (Homo sapiens) (UniProt P12821); assay: Inhibition of ACE1 (unknown origin)
[2] = Passive permeability in MDCK cells; format: ADME, cell-based, Canis lupus familiaris; conditions: dog
Cytochrome P450 3A4 = Cytochrome P450 3A4 (Homo sapiens, UniProt P08684); assay: Inhibition of CYP3A4 (unknown origin); format: ADME
[3] = target: Endothelin-1 receptor (Homo sapiens) (UniProt P25101); assay: Inhibition of ETA (unknown origin)
[4] = target: Sodium channel protein type 1 subunit alpha (Homo sapiens) (UniProt P35498); assay: Inhibition of NaV1.1 (unknown origin)
[5] = Volume of distribution at steady state in Wistar Han rat at 1 mg/kg, iv by LC-MS/MS analysis; format: ADME, organism-based; conditions: in vivo, read-out: Vdss
[6] = target: Adenosine receptor A1 (Homo sapiens) (UniProt P30542); assay: Inhibition of ADORA1 (unknown origin)
Sequence of Adenosine receptor A1 (Homo sapiens) (P30542 whole entry): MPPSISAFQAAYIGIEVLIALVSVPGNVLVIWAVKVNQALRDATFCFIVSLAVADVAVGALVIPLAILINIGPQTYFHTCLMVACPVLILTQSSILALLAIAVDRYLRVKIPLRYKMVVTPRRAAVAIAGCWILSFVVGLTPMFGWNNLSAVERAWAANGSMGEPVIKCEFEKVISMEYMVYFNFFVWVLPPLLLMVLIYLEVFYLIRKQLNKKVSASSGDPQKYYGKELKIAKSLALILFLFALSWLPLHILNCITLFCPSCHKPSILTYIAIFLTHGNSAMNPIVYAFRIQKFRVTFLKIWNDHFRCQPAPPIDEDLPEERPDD

[7] = target: Neuronal acetylcholine receptor; alpha4/beta2 (Homo sapiens) (UniProt P17787+P43681); assay: Inhibition of alpha-4/beta-2 (unknown origin); format: protein-complex assay
[8] = target: Voltage-gated L-type calcium channel (Homo sapiens, UniProt Q13936+Q13698+Q01668+O60840); assay: Inhibition of L type calcium channel (unknown origin); format: protein assay
[9] = target: Mu-type opioid receptor (Homo sapiens) (UniProt P35372); assay: Inhibition of MOP (unknown origin)
Cytochrome P450 1A2 = Cytochrome P450 1A2 (Homo sapiens, UniProt P05177); assay: Inhibition of CYP1A2 (unknown origin); format: ADME
[10] = target: Muscarinic acetylcholine receptor M3 (Homo sapiens) (UniProt P20309); assay: Inhibition of M3 (unknown origin)
[11] = target: Beta-1 adrenergic receptor (Homo sapiens) (UniProt P08588); assay: Inhibition of ADRB1 (unknown origin)
Sequence of Beta-1 adrenergic receptor (Homo sapiens) (P08588 whole entry, looked up): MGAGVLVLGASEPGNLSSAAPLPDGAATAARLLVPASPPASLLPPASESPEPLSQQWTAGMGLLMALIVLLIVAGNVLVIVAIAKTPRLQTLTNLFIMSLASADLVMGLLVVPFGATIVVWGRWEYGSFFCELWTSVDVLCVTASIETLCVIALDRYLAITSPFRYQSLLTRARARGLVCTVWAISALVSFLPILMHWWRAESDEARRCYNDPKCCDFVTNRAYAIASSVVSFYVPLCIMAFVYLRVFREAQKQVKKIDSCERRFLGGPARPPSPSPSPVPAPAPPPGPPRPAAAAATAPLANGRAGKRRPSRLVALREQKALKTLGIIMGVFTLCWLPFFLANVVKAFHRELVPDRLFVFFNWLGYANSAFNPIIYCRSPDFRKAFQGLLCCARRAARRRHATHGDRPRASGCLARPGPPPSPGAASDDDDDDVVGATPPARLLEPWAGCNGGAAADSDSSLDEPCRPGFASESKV

[12] = Thermodynamic solubility of compound in aqueous solution at pH 6.5; format: physicochemical; conditions: read-out: Therm_solubility
Rattus norvegicus [13] = assay: Decrease in [14C]citrate uptake in iv dosed Wistar Han rat kidney measured after 185 to 200 mins by scintillation counting method; format: functional, organism-based
[14] = target: Cannabinoid receptor 1 (Homo sapiens) (UniProt P21554); assay: Inhibition of CB1 (unknown origin)
[15] = target: Muscarinic acetylcholine receptor M1 (Homo sapiens) (UniProt P11229); assay: Inhibition of M1 (unknown origin)
Sequence of Muscarinic acetylcholine receptor M1 (Homo sapiens) (P11229 whole entry): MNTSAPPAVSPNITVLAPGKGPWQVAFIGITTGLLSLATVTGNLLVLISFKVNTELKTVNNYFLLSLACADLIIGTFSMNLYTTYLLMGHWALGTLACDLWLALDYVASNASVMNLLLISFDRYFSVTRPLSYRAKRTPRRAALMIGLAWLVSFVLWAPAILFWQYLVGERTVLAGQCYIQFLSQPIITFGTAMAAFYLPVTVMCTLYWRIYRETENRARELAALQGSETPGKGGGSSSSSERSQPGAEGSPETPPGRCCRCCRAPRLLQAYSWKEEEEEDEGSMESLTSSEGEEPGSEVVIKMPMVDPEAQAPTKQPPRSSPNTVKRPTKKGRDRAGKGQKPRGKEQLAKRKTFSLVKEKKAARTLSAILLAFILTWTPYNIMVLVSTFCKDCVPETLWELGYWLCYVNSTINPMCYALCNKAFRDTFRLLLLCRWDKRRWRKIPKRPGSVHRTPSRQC

[16] = AUC(0 to t) in Wistar Han rat at 5 mg/kg, po by LC-MS/MS analysis; format: ADME, organism-based; conditions: in vivo
[17] = target: Tyrosine-protein kinase Lck (Homo sapiens) (UniProt P06239); assay: Inhibition of LCK (unknown origin)
Sequence of Tyrosine-protein kinase Lck (Homo sapiens) (P06239 2-509 limits assumed): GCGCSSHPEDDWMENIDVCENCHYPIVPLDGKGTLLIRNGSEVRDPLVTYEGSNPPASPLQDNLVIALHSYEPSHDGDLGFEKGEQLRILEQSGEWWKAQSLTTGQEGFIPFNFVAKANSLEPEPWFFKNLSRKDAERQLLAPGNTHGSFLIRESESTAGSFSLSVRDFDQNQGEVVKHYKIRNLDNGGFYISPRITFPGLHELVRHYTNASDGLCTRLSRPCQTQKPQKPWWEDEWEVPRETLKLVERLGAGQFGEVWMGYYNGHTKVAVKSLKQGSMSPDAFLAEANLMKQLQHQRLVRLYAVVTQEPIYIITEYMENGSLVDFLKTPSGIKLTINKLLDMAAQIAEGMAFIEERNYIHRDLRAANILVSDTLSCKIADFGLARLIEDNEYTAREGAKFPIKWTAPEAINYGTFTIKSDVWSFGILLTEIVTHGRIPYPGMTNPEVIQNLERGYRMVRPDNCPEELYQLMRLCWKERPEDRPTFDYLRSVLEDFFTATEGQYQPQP

[18] = target: Na(+)/citrate cotransporter (Rattus norvegicus, UniProt Q8CJ44); assay: Inhibition of NaCT in rat hepatocytes assessed as [14C]-citrate uptake after 30 mins by scintillation counting method; format: cell-based, Hepatocyte
[19] = target: Sodium channel protein type 5 subunit alpha (Homo sapiens, UniProt Q14524); assay: Inhibition of NaV1.5 (unknown origin)
[20] = target: Prostaglandin G/H synthase 2 (Homo sapiens) (UniProt P35354); assay: Inhibition of cyclooxygenase 2 (unknown origin)
[21] = target: cGMP-specific 3',5'-cyclic phosphodiesterase (Homo sapiens) (UniProt O76074); assay: Inhibition of PDE5A1 (unknown origin)
Rattus norvegicus [22] = species on record: Rattus norvegicus; assay: Increase in [12C]-citrate levels in rat plasma measured over 140 to 150 mins by UPLC-MS/MS analysis; format: functional, organism-based
[23] = Clearance in human hepatocytes assessed per 10^6 cells; format: ADME, cell-based, Hepatocyte; conditions: read-out: CLH
[24] = target: Sodium-dependent phosphate transport protein 3 (Homo sapiens) (UniProt O00624); assay: Inhibition of NaPiA3 (unknown origin)
[25] = target: Mitogen-activated protein kinase 14 (Homo sapiens) (UniProt Q16539); assay: Inhibition of MAPK14/P38-alpha (unknown origin)
[26] = target: Proto-oncogene tyrosine-protein kinase Src (Homo sapiens) (UniProt P12931); assay: Inhibition of SRC (unknown origin)
[27] = target: Kappa-type opioid receptor (Homo sapiens) (UniProt P41145); assay: Inhibition of OPRK1 (unknown origin)
Sequence of Kappa-type opioid receptor (Homo sapiens) (P41145 whole entry): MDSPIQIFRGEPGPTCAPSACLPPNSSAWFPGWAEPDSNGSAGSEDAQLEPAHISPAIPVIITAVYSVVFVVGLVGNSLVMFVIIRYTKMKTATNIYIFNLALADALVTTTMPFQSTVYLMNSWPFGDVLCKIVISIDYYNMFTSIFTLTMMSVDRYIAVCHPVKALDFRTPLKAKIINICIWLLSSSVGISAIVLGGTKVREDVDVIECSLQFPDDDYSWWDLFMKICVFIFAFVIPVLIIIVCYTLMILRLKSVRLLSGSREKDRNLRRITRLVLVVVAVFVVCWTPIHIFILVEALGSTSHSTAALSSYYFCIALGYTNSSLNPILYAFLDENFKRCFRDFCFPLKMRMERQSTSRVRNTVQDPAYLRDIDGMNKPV

[28] = target: 5-hydroxytryptamine receptor 3A (Homo sapiens) (UniProt P46098); assay: Inhibition of 5HT3 receptor (unknown origin)
Rattus norvegicus [29] = assay: Decrease in [14C]citrate uptake in iv dosed Wistar Han rat liver measured after 185 to 200 mins by scintillation counting method; format: functional, organism-based
[30] = target: Sodium-dependent noradrenaline transporter (Homo sapiens) (UniProt P23975); assay: Inhibition of NAT (unknown origin)
[31] = Clearance in mouse hepatocytes assessed per 10^6 cells; format: ADME, cell-based, Hepatocyte; conditions: read-out: CLH
[32] = target: Sodium-dependent serotonin transporter (Homo sapiens) (UniProt P31645); assay: Inhibition of 5HTT (unknown origin)
[33] = target: 3',5'-cyclic-AMP phosphodiesterase 4D (Homo sapiens) (UniProt Q08499); assay: Inhibition of PDE4D2 (unknown origin)
[34] = target: D(1A) dopamine receptor (Homo sapiens) (UniProt P21728); assay: Inhibition of D1 (unknown origin)
Rattus norvegicus [35] = species on record: Rattus norvegicus; assay: Increase in [12C]-citrate levels in rat liver measured over 140 to 150 mins by UPLC-MS/MS analysis; format: functional, organism-based
Mus musculus = species on record: Mus musculus; assay: Decrease in [14C]citrate uptake in DIO mouse liver during hyperinsulinemic-euglycemic clamp; format: functional, organism-based
Bile salt export pump = Bile salt export pump (Homo sapiens, UniProt O95342); assay: Inhibition of ABCB11 (unknown origin)
Sequence of Bile salt export pump (O95342 whole entry): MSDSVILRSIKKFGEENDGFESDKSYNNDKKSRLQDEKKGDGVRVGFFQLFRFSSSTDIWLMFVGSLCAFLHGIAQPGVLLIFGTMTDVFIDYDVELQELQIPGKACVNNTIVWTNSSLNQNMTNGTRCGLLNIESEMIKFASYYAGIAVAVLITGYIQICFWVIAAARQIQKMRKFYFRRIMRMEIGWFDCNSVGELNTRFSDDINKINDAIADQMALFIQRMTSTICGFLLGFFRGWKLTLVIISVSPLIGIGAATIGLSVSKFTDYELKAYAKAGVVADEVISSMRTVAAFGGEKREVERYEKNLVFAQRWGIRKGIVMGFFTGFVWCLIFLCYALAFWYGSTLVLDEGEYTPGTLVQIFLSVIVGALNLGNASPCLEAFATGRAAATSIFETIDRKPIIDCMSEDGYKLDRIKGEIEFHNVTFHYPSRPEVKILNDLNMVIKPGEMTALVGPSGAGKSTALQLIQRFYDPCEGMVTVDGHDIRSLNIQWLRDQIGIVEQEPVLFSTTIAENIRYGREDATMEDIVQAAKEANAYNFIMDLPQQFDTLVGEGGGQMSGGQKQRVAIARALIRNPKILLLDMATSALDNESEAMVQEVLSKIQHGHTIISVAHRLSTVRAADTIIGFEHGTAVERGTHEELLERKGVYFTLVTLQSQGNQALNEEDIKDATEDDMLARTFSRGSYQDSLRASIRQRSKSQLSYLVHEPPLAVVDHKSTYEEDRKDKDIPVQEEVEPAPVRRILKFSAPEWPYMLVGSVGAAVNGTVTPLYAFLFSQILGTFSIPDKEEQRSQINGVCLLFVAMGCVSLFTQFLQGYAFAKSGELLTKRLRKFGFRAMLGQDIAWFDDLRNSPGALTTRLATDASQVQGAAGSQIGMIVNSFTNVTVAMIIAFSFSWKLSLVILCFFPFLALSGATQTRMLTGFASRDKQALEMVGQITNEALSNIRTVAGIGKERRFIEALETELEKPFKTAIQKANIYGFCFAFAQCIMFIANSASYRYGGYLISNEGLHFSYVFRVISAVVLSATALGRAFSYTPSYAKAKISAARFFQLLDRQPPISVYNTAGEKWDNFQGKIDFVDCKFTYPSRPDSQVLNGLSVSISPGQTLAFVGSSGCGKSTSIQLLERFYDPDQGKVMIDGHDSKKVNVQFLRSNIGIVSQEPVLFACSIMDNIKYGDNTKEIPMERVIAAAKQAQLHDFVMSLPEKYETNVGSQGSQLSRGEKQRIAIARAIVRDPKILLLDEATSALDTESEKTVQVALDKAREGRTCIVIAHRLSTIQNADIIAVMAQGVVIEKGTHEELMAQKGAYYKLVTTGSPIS

Homo sapiens = species on record: Homo sapiens; assay: Inhibition of PDE3A1 (unknown origin)
[36] = target: Tyrosine-protein kinase ABL1 (Homo sapiens) (UniProt P00519); assay: Inhibition of ABL1 (unknown origin)
[37] = target: Sodium-dependent phosphate transport protein 2A (Homo sapiens) (UniProt Q06495); assay: Inhibition of NaPiA2 (unknown origin)
[38] = target: Sodium-dependent dopamine transporter (Homo sapiens) (UniProt Q01959); assay: Inhibition of DAT (unknown origin)
[39] = target: Histamine H3 receptor (Homo sapiens) (UniProt Q9Y5N1); assay: Inhibition of H3 (unknown origin)
[40] = target: D(2) dopamine receptor (Homo sapiens) (UniProt P14416); assay: Inhibition of D2 (unknown origin)
[41] = target: Peroxisome proliferator-activated receptor gamma (Homo sapiens) (UniProt P37231); assay: Inhibition of PPAR gamma (unknown origin)

Sequence of Angiotensin-converting enzyme (Homo sapiens) (P12821 whole entry): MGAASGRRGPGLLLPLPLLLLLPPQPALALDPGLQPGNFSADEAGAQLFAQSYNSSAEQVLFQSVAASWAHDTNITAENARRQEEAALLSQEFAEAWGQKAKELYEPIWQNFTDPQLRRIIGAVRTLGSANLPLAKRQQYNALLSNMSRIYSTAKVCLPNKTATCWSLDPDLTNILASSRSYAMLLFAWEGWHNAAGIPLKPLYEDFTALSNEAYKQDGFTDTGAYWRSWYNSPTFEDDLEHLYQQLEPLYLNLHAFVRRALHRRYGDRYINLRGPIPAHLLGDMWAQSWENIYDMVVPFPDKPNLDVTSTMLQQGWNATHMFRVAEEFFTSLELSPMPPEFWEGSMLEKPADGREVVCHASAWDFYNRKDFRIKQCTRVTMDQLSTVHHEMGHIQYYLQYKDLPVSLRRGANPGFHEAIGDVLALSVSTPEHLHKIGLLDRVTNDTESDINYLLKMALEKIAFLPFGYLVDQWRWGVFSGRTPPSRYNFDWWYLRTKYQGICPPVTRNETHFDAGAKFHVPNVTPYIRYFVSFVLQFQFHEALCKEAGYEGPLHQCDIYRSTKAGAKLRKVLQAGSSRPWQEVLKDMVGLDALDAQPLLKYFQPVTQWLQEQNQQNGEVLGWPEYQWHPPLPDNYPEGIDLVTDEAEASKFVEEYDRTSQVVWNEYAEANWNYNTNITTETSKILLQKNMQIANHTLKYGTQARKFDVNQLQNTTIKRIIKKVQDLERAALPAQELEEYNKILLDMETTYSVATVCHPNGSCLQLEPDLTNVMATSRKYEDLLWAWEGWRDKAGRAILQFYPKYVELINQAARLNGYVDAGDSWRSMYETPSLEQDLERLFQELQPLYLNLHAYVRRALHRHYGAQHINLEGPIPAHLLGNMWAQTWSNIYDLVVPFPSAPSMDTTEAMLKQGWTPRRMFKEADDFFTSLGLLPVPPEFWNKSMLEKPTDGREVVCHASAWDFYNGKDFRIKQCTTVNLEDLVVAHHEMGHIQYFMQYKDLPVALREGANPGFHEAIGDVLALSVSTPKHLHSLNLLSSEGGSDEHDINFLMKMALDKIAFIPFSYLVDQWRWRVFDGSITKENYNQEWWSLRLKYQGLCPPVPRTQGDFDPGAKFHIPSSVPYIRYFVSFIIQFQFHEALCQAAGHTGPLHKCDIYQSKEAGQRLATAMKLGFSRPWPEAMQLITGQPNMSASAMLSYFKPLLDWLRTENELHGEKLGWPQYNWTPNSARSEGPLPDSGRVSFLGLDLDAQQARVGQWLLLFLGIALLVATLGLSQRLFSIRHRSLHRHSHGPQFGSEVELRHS

COc1ncc(C)cc1CC[C@@](O)(CC(=O)O)C(=O)O
inhibition [1]: inactive | Papp [2]: 0.3 ×10⁻⁶ cm/s | inhibition (INH) (Cytochrome P450 3A4): Not Active | inhibition [3]: inactive | inhibition [4]: inactive | Vd [5]: 0.54 L/kg | inhibition [6]: inactive | inhibition [7]: inactive | inhibition (INH) [8]: Not Active | inhibition [9]: inactive | inhibition (INH) (Cytochrome P450 1A2): Not Active | inhibition [10]: inactive | inhibition [11]: inactive | solubility thermodynamic [12]: 24 µM (≈ 6.8 µg/mL) | IC50 (Rattus norvegicus [13]): 1000 nM | inhibition [14]: inactive | inhibition [15]: inactive | AUC(0-t) [16]: 4890 ng·h/mL | inhibition [17]: inactive | IC50 [18]: 120 nM | inhibition (INH) [19]: Not Active | inhibition [20]: inactive | inhibition [21]: inactive | Activity (Rattus norvegicus [22]): Active | hepatocyte CLint [23]: 7 µL/min/1e6 cells | inhibition [24]: inactive | inhibition [25]: inactive | inhibition [26]: inactive | inhibition [27]: inactive | inhibition [28]: inactive | IC50 (Rattus norvegicus [29]): 1400 nM | inhibition [30]: inactive | hepatocyte CLint [31]: < 6 µL/min/1e6 cells | inhibition [32]: inactive | inhibition [33]: inactive | inhibition [34]: inactive | Activity (Rattus norvegicus [35]): Active | inhibition (Mus musculus): Active | inhibition (INH) (Bile salt export pump): Not Active | inhibition (Homo sapiens): inactive | inhibition [36]: inactive | inhibition [37]: inactive | inhibition [38]: inactive | inhibition [39]: inactive | inhibition [40]: inactive | inhibition [41]: inactive

Reference: ChEMBL document CHEMBL3769388, “Optimization of a Dicarboxylic Series for in Vivo Inhibition of Citrate Transport by the Solute Carrier 13 (SLC13) Family” (J Med Chem, 2016)
